Reference: ChEMBL document CHEMBL5226345, “Lactate dehydrogenase and malate dehydrogenase: Potential antiparasitic targets for drug development studies” (Bioorg Med Chem, 2021)
Blank lines part the entries; values can stand above or below the compound they belong to.

What was measured:
[1] = Inhibition of recombinant his tagged Cryptosporidium parvum LDH expressed in Escherichia coli by spectrophotometric based assay
[2] = Inhibition of Toxoplasma gondii LDH1
[3] = Inhibition of Plasmodium falciparum LDH
[4] = Inhibition of Toxoplasma gondii LDH2
[5] = Inhibition of Plasmodium falciparum MDH
[6] = Inhibition of Trichomonas vaginalis LDH
[7] = Inhibition of Plasmodium falciparum LDH by ELISA method
[8] = Inhibition of Schistosoma LDH

Structure (SMILES): CCCc1c(O)c(O)c(C(=O)O)c2cc(Cc3ccccc3)c(C)cc12
IC50 [1]: 39.5 µM | IC50 [2]: 3.5 µM | IC50 [3]: 0.14 µM | IC50 [4]: 0.9 µM

Structure (SMILES): COc1ccc(CNC(=O)C2=CC(=O)c3c(O)cc(OCCc4ccc(NC(=O)C(=O)O)c(C)c4)cc3C2)cc1
IC50 [5]: 2.66 µM | IC50 [3]: 1.75 µM

Structure (SMILES): O=C(Nc1ccccc1)c1nnn(-c2ccnc3cc(Cl)ccc23)c1-c1ccccc1
IC50 [6]: 100 µM

Structure (SMILES): O=C(CSc1ccccc1)Nc1cccc2ccccc12
IC50 [1]: 79.6 µM

Structure (SMILES): CC(C)c1c(C(=O)Nc2ccccc2)c(-c2ccccc2)c(-c2ccc(F)cc2)n1CC[C@@H](O)C[C@@H](O)CC(=O)O [ATORVASTATIN]
IC50 [7]: 13.1 µM

Structure (SMILES): c1ccc2[nH]cnc2c1 [BENZIMIDAZOLE]
IC50 [8]: Not Active

Structure (SMILES): Cc1cc2c(C(C)C)c(O)c(O)c(C=O)c2c(O)c1-c1c(C)cc2c(C(C)C)c(O)c(O)c(C=O)c2c1O [GOSSYPOL]
IC50 [1]: 11.8 µM | IC50 [2]: 0.7 µM | IC50 [4]: 0.1 µM

Structure (SMILES): CC[C@@H]([C@H](C)O)n1ncn(-c2ccc(N3CCN(c4ccc(OC[C@@H]5CO[C@@](Cn6cncn6)(c6ccc(F)cc6F)C5)cc4)CC3)cc2)c1=O [POSACONAZOLE]
IC50 [7]: 2.6 µM

More lines, now with the values ahead:

IC50 [7]: 9.3 µM
Structure (SMILES): CCC(C)n1ncn(-c2ccc(N3CCN(c4ccc(OCC5COC(Cn6cncn6)(c6ccc(Cl)cc6Cl)O5)cc4)CC3)cc2)c1=O (stereo not drawn) [ITRACONAZOLE]

IC50 [5]: 2.66 µM
Structure (SMILES): NC(=O)C(=O)O [OXAMATE]

IC50 [8]: Not Active
Structure (SMILES): O=C(C1CCCCC1)N1CC(=O)N2CCc3ccccc3C2C1 (stereo not drawn) [PRAZIQUANTEL]

IC50 [1]: 46.3 µM
Structure (SMILES): O=C1c2ccccc2C(=O)c2c(O)c(O)cc(O)c21 [PURPURIN]
